Laboratory results reported in article PMC3694096, “Development of Novel In Vivo Chemical Probes to Address CNS Protein Kinase Involvement in Synaptic Dysfunction” (PLoS ONE, 2013).

Key:
[1] = system: p38MAPKs; set-up: method as in PMID 17079143; details: cited from earlier work
[2] = target: casein kinase 1δ (CK1δ), p38βMAPK and other kinases; details: cited from earlier work
[3] = Dose escalation adverse event screen (SHIRPA based); type: in vivo; details: highest dose at which no adverse events are observed in dose escalation studies, mice
From the text: Novel compounds were screened in vivo using a standard dose escalation screen in mice coupled with clinical observation and testing based on the SHIRPA mouse phenotype assay paradigm. To obtain insight into the potential for off-target activity with the largest known family of small molecule drug targets, G-protein coupled receptors (GPCRs), a cell-based functional screen of the final title compounds was done. The Millipore® GPCR Profiler screen employs the ChemiScreen GPCR stable cell line technology used for real-time calcium flux FLIPR assays on a panel of 158 GPCRs to detect both antagonists and agonists. The NCBI Entrez identifier for each GPCR is provided at the vendor site (www.millipore.com). Follow-up validation of any initial hits as being true positives or negatives was done as described above for protein kinases by testing the concentration dependence of any cellular effects. No validated hits were detected.

SMILES	Dose Escalating Adverse Event Screen / Adverse Pharm Dose [3]	also measured
c1ccc(-c2cc(-c3ccncc3)c(N3CCN(c4ncccn4)CC3)nn2)cc1 [MW01-6-189WH]	–	interaction with p38MAPKs [1]: does not interact with p38MAPKs
C[S+]([O-])c1ccc(-c2nc(-c3ccncc3)c(-c3ccc(F)cc3)[nH]2)cc1 (centres unmarked) [SB203580]	–	kinase cross-over [2]: inhibit casein kinase 1δ (CK1δ), p38βMAPK and other kinases
CCCN(C)c1cc(-c2ccncc2)c(-c2ccccc2)nn1 [MW207]	> 200 mg/kg	–
CN(C)c1cc(-c2ccncc2)c(-c2ccccc2)nn1 [MW105, N, N-dimethyl-6-phenyl-5-(pyridin-4-yl)pyridazin-3-amine]	> 200 mg/kg	–
c1ccc(-c2nnc(N3CCN(c4ncccn4)CC3)cc2-c2ccncc2)cc1 [MW069a]	60 mg/kg	–
CN1CCN(c2cc(-c3ccncc3)c(-c3ccccc3)nn2)CC1 [MW066]	> 200 mg/kg	–
CCN(CC)c1cc(-c2ccncc2)c(-c2ccccc2)nn1 [MW177]	> 200 mg/kg	–
COc1nccc(-c2c(-c3ccc(F)cc3)ncn2C2CCC(O)CC2)n1 (centres unmarked) [SB239063]	–	kinase cross-over [2]: inhibit casein kinase 1δ (CK1δ), p38βMAPK and other kinases
